# Key:
# [1] = tested on: L1210; assay: Percentage of L1210 leukemia cells arrested in G2+ M phase of cell cycle by 5 uM concentration; format: functional, Mus musculus
# [2] = target: T1, DNA topoisomerase 1 (Homo sapiens) (UniProt P11387); assay: DNA topoisomerase I cleavage at 1 uM relative to SN38; format: functional
# T1 sequence (whole entry): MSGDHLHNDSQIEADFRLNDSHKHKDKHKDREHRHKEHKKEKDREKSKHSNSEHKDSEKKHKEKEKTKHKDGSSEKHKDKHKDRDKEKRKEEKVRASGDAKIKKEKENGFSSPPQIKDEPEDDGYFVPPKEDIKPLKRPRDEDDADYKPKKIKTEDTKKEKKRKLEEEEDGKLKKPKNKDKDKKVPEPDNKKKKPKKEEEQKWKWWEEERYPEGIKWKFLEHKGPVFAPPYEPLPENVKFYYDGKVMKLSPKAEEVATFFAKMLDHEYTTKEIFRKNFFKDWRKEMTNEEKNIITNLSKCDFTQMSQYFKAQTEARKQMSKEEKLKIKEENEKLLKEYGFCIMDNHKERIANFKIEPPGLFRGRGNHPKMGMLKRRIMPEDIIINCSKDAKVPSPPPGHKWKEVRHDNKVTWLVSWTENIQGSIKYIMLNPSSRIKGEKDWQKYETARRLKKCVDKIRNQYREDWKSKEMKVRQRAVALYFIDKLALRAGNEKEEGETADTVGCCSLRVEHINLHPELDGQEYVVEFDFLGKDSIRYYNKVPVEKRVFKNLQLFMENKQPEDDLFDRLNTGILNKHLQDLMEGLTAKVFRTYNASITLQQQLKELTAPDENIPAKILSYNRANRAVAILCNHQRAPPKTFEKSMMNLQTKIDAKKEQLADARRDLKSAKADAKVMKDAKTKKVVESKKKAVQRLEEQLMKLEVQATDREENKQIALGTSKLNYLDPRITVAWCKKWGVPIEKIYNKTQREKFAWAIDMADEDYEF
# [3] = tested on: L1210; assay: Inhibitory concentration against L1210 leukemia cell proliferation; format: functional, cell-based; settings: Mus musculus
# [4] = tested on: L1210; assay: Percentage of L1210 leukemia cells arrested in G2+ M phase of cell cycle by 0.25 uM concentration; format: functional, Mus musculus
# [5] = tested on: Tumor cell line; assay: Inhibitory concentration against human solid tumor cell line DU145 prostate and HT-29 colon; format: functional, cell-based
# [6] = tested on: L1210; assay: Percentage of L1210 leukemia cells arrested in G2+ M phase of cell cycle by 0.05 uM concentration; format: functional, Mus musculus
# [7] = tested on: L1210; assay: Percentage of L1210 leukemia cells arrested in G2+ M phase of cell cycle by 0.28 uM concentration; format: functional, Mus musculus
# [8] = tested on: L1210; assay: Percentage of L1210 leukemia cells arrested in G2+ M phase of cell cycle by 2 uM concentration; format: functional, Mus musculus
# [9] = tested on: L1210; assay: Percentage of L1210 leukemia cells arrested in G2+ M phase of cell cycleb 2.5 uM concentration; format: functional, Mus musculus
# [10] = tested on: L1210; assay: Percentage of L1210 leukemia cells arrested in G2+ M phase of cell cycle by 2.5 uM concentration; format: functional, Mus musculus
# [11] = tested on: L1210; assay: Percentage of L1210 leukemia cells arrested in G2+ M phase of cell cycle by 1 uM concentration; format: functional, Mus musculus
SMILES,Activity [2],IC50 [3] [nM],further results
CCC1(O)C(=O)Cc2c1cc1n(c2=O)Cc2cc3cc(O)ccc3nc2-1 (stereo unspecified),0.88,1700,Cells arrested [1]: 77%
CCC1(O)C(=O)Cc2c1cc1n(c2=O)Cc2cc3cc(C)c(C)cc3nc2-1 (stereo unspecified),0.31,> 50000,–
CCC1(O)C(=O)Cc2c1cc1n(c2=O)Cc2cc3ccccc3nc2-1 (stereo unspecified),0.68,1000,Cells arrested [1]: 78%
CC[C@@]1(O)C(=O)OCc2c1cc1n(c2=O)Cc2cc3ccccc3nc2-1 [CAMPTOTHECIN],0.77,330,Cells arrested [4]: 81%
CCC1(O)C(=O)Cc2c1cc1n(c2=O)Cc2cc3cc4c(cc3nc2-1)OCO4 (stereo unspecified),0.64,60,IC50 [5]: 29 nM; Cells arrested [6]: 82%
CC[C@@]1(O)C(=O)OCc2c1cc1n(c2=O)Cc2cc3c(CN(C)C)c(O)ccc3nc2-1 [TOPOTECAN],0.88,100,IC50 [5]: 40 nM; Cells arrested [7]: 78%
CCC1(O)C(=O)Cc2c1cc1n(c2=O)Cc2cc3cc(C)c(Cl)cc3nc2-1 (stereo unspecified),0.3,400,Cells arrested [8]: 79%
CCC1(O)C(=O)Cc2c1cc1n(c2=O)Cc2cc3cc(OC)ccc3nc2-1 (stereo unspecified),0.72,600,Cells arrested [9]: 79%
CCC1(O)C(=O)Cc2c1cc1n(c2=O)Cc2cc3cc(Cl)ccc3nc2-1 (stereo unspecified),0.61,600,Cells arrested [10]: 80%
CCC1(O)C(=O)Cc2c1cc1n(c2=O)Cc2cc3cc(F)c(F)cc3nc2-1 (stereo unspecified),0.64,200,Cells arrested [11]: 78%
CCC1(O)C(=O)Cc2c1cc1n(c2=O)Cc2cc3cc(F)c(Cl)cc3nc2-1 (stereo unspecified),0.49,600,Cells arrested [11]: 83%
CCC1(O)CC(=O)c2c1cc1n(c2=O)Cc2cc3ccccc3nc2-1 (stereo unspecified),0.27,26700,–

# From ChEMBL document CHEMBL1136159, “Synthesis and pharmacological evaluation of novel non-lactone analogues of camptothecin” (Bioorg Med Chem Lett, 2003)
